{"source": "patent US10278971B2", "about": "“Fluorocyclopentenylcytosine methods of use” (Rexahn Pharmaceuticals, Inc., priority 2015, dated 2019)", "test_system": "A549 cells", "assay": "Protein expression by western blot", "type": "cell-based, human", "experimental": "The mechanism of cell cycle arrest was investigated by measuring cell cycle proteins expression using western blotting. The influence of RX-3117 on protein expression during different treatment conditions was analyzed by western blot. Cells were lysed using cell lysis buffer 1× (Cell Signaling, Danvers, Mass., USA) containing 4% protease inhibitor cocktail (Roche Diagnostics, Mannheim, Germany) on ice for 30 minutes and centrifuged for 10 minutes at 4° C. at 14,000 rpm. The protein containing supernatant was collected and the Bio-Rad assay was performed to determine protein amount as described in Lemos et al., Pharmacogenomics, 12(2):159-70 (2011). The following antibodies were used for protein expression: DNMT1 (Cell Signaling, 1:1000 #5032S), DNMT3A (Cell Signaling 1:1000 #2160S), DNMT3B (Abcam, 1; 1000), Chk2 (Cell Signaling 1:1000 #6334P), Chk1 (Cell Signaling 1:1000), p-CDC25C (Cell Signaling 1:1000 #4901S), Cdk1 (Cell Signaling 1:1000 #9112S), Cdk2 (Cell Signaling 1:1000 #2546S), wee1 (Cell Signaling 1:1000), 5139-γH2A.X (Cell Signaling, 1:1000), β actin (Sigma, 1:10,000), Caspase 9 (Cell Signaling, 1:1000), PARP (Roche 2003, 1:1000), p53 (Cell Signaling, 1:1000, #9282). The antibodies were diluted in 1:1 solution Rockland buffer (Rockland Inc., Philadelphia, Pa., USA) and PBS supplemented with 0.05% Tween® 20. The proteins were separated in 20% SDS-PAGE and transferred to a PVDF membrane. For fluorescent signal secondary antibodies goat anti-mouse InfraRedDye and goat anti-rabbit InfraRedDye were used. The proteins were detected by an Odyssey InfraRed Imager (Li-COR Bioscience, Lincoln, Nebr., USA).\nThe influence of RX-3117 on protein expression during different treatment conditions was analyzed by western blot. Cells were lysed using 1× cell lysis buffer (Cell Signaling, Danvers, Mass., USA) containing 4% protease inhibitor cocktail (Roche Diagnostics, Mannheim, Germany) on ice for 30 minutes and centrifuged for 10 minutes at 4° C. at 14,000 rpm. Bio-Rad assay was performed to determine protein amount in the collected supernatant as described earlier (Lemos C, Kathmann I, Giovannetti E, Calhau C, Jansen G and Peters G J: Impact of cellular folate status and epidermal growth factor receptor expression on BCRP/ABCG2-mediated resistance to gefitinib and erlotinib. Br J Cancer 100: 1120-7, 2009). The following antibodies were used for protein expression: γH2A.X (cat#9718, Cell Signaling, 1:1000), β-actin (Sigma, 1:10,000), Cdc25C Ser216 (cat#4901, Cell Signaling, 1:1000), Cdk1 Tyr15 (cat#9111, Cell Signaling, 1:1000), […] (cat#2197S, Cell Signaling, 1:1000), Histone 3 (cat#4499, Cell Signaling). Antibodies were diluted in 1:1 solution with Rockland buffer (Rockland Inc, Philadelphia, Pa.) and phosphate buffered saline (PBS) supplemented with 0.05 Tween 20. Proteins were separated in 20% SDS-PAGE gel and transferred to polyvinylidene difluoride (PVDF) membrane. For fluorescent signal secondary anti-bodies goat anti-mouse InfraRedDye and goat anti-rabbit InfraRedDye were used. Proteins were detected by an Odyssey InfraRed Imager (Li-COR Bioscience, Lincoln, Nebr.).", "data": [{"smiles": "Nc1ccn([C@@H]2C(F)=C(CO)[C@@H](O)[C@H]2O)c(=O)n1", "note": "[RX-3117, 4-amino-1-((1S,4R,5S)-2-fluoro-4,5-dihydroxy-3-hydroxymethyl-cyclopent-2-enyl)-1H-pyrimidin-2-one]", "values": [{"measurement": "p53 expression levels", "setting": "A549, 1 μM and 5 μM", "value": "increased"}, {"measurement": "expression of p16INK4A and MGMT", "setting": "A549, 5 μM, 24 hr exposure", "value": "increased"}, {"measurement": "DNMT3A and DNMT3B expression levels", "setting": "A549, 1-75 μM", "value": "increased"}, {"measurement": "pro-caspase 9", "setting": "A549, 24 hour exposure to increasing concentrations", "value": "decreased"}]}]}
